Data: patent publication US20230133910A1, “NEW METHOD FOR DETECTING AND QUANTIFYING RNA” (EAST CHINA UNIVERSITY OF SCIENCE AND TECHNOLOGY, priority 2020, published 2023)

What was measured:
[1] = tested on: Carrot-1 RNA aptamer; assay: Properties of Carrot-1 RNA aptamer with different fluorophores (spectra, extinction coefficient, quantum yield, activation fold); assay type: biochemical; settings: for Emmax / Exmax / Extinction coefficient / Quantum yield: fluorophore bound to Carrot-1 RNA aptamer; for Activation fold: fluorophore with Carrot-1 RNA aptamer versus fluorophore alone
Experimental: (§1) (5) Function detection of nucleic acid aptamers Carrot or Carrot mutant nucleic acid aptamer molecules were prepared according to common experimental method (I), 5 μM of nucleic acid aptamer molecules and 1 μM of fluorophore molecules were incubated in detection buffer (40 mM HEPES, pH 7.4, 125 mM KCl, 5 mM MgCl2, 5% DMSO), and Synergy Neo2 multifunctional microplate reader was used for detecting and obtaining the maximum excitation peak and the maximum emission peak of the fluorescence of the nucleic acid aptamer-fluorophore molecule complex. The Synergy Neo2 multifunctional microplate reader was used again for detecting the fluorescence intensity of the aptamer-fluorophore molecule complex under its maximum excitation and emission conditions. Control sample (1 μM of fluorophore molecules without nucleic acid aptamer) was measured under the same condition, and the ratio of fluorescence intensity was calculated. […] By using Synergy Neo2 multifunctional microplate reader, it was detected that the fluorescence intensity of the complex was 5720 when it was excited at 524±10 nm and emitted under the emission condition of 580 nm±10 nm, while fluorescence intensity of the control sample (1 μM of IV-39 fluorophore molecules) under the same detection condition was 20, so the activation multiple of Carrot-1 nuclear acid aptamer to IV-39 fluorophore molecule was 286.
In order to detect the spectral properties of the Carrot-IV-39 complex, Carrot-1 (SEQ ID NO: 2) RNA was prepared according to the commonly used experimental method (1). 1 μM IV-39 with 5 μM Carrot-1 was incubated.
Carrot-1 RNA aptamer was prepared according to the commonly used experimental methods (1), and was used to detect the properties of IV-39 analogues upon Carrot binding, including the fluorescence spectrum, extinction coefficient, quantum yield and fluorescence activation fold. From the data shown in the table, Carrot-1 still could activate the fluorescence of IV-39 analogues.

[2] = Fluorescence activation of IV-39 by base-modified Carrot; assay type: biochemical; settings: control buffer
Experimental: as §1, with “286. […]” for “286.”

Row | Compound | Emmax [1] [nm] | Exmax [1] [nm] | Extinction coefficient [1] [M⁻¹ cm⁻¹] | Quantum yield [1] | Activation fold [1] [fold] | activation of the fluorescence of IV-39 fluorophore [2]
1 | CN1C(=O)/C(=C/c2cc(F)c(O)c(F)c2)N=C1/C=C/c1cccc(O)c1 [Carrot-1-IV-4] | 574 | 490 | 23000 | 0.37 | 191 | 
2 | CN1C(=S)/C(=C/c2cc(F)c(O)c(F)c2)N=C1/C=C/c1ccc(F)cc1 [Carrot-1-IV-7] | 598 | 514 | 24000 | 0.27 | 201 | 
3 | CN1C(=S)/C(=C/c2cc(F)c(O)c(F)c2)N=C1/C=C/c1ccc(C#N)cc1 [Carrot-1-IV-8] | 638 | 534 | 22500 | 0.21 | 68 | 
4 | CC(C)CN1C(=O)/C(=C/c2cc(F)c(O)c(Br)c2)N=C1/C=C/c1ncc(C#N)cn1 [Carrot-1-IV-11] | 614 | 507 | 21000 | 0.05 | 16 | 
5 | COCCOCCOCCOCCN1C(=O)/C(=C/c2cc(F)c(O)c(I)c2)N=C1/C=C/c1ccc(Cl)cc1 [Carrot-1-IV-12] | 577 | 482 | 19000 | 0.03 | 6 | 
6 | CNC(=O)CN1C(=O)/C(=C/c2cc(Cl)c(O)c(Cl)c2)N=C1/C=C/c1ccc(Br)cc1 [Carrot-1-IV-13] | 579 | 478 | 20000 | 0.02 | 5 | 
7 | C#CCN1C(=O)/C(=C/c2ccc(O)c(Cl)c2)N=C1/C=C/c1ccc(I)cc1 [Carrot-1-IV-14] | 585 | 482 | 21000 | 0.02 | 6 | 
8 | O=C1/C(=C/c2ccc(O)c(Br)c2)N=C(/C=C/c2cccc(Cl)c2)N1CCO [Carrot-1-IV-15] | 578 | 480 | 21000 | 0.03 | 7 | 
9 | CN1C(=O)/C(=C/c2cc(Br)c(O)c(Br)c2)N=C1/C=C/c1ccc(F)cc1 [Carrot-1-IV-16] | 587 | 485 | 22000 | 0.08 | 34 | 
10 | CN1C(=O)/C(=C/c2ccc(N(C)CCO)cc2)N=C1/C=C/c1cccc(O)c1 [Carrot-1-IV-17] | 582 | 524 | 32000 | 0.47 | 282 | 
11 | CN1C(=O)/C(=C/c2ccc(N(C)CCO)cc2)N=C1/C=C/c1cccc(F)c1 [Carrot-1-IV-19] | 590 | 522 | 30000 | 0.43 | 331 | 
12 | CN1C(=O)/C(=C/c2ccc(N(C)CCO)cc2)N=C1/C=C/c1ccc(F)cc1 [Carrot-1-IV-22] | 580 | 522 | 32000 | 0.46 | 301 | 
13 | C=CCOCCN(C)c1ccc(/C=C2N=C(/C=C/c3ccccc3C#N)N(C)C\2=S)cc1 [Carrot-1-IV-23] | 648 | 547 | 19000 | 0.12 | 57 | 
14 | CCCN1C(=S)/C(=C/c2ccc(N(C)C)nc2)N=C1/C=C/c1ccccc1F [Carrot-1-IV-24] | 615 | 498 | 21000 | 0.09 | 45 | 
15 | CCN(CC)c1ccc(/C=C2N=C(/C=C/c3ccc(Cl)cc3)N(CC(=O)OC)C\2=O)nc1 [Carrot-1-IV-25] | 574 | 475 | 18000 | 0.02 | 4 | 
16 | CN1C(=O)/C(=C/c2cnc(N(C)CCC#N)nc2)N=C1/C=C/c1ccccc1I [Carrot-1-IV-27] | 576 | 472 | 19000 | 0.09 | 57 | 
17 | CN1CCc2cc(/C=C3N=C(/C=C/c4ccc(F)nc4)N(CCO)C\3=O)ccc21 [Carrot-1-IV-28] | 579 | 476 | 19000 | 0.04 | 19 | 
18 | CN1C(=O)/C(=C/c2ccc(N(C)CCS(=O)(=O)O)cc2)N=C1/C=C/c1ccc(C#N)cc1 [Carrot-1-IV-29] | 619 | 531 | 27000 | 0.26 | 87 | 
19 | CN1CCc2cc(/C=C3N=C(/C=C/c4ccc(Br)nc4)N(CC(F)(F)F)C\3=O)ccc21 [Carrot-1-IV-30] | 588 | 485 | 19000 | 0.05 | 15 | 
20 | COCCOCCOCCOCC(=O)OCCN(C)c1ccc(/C=C2N=C(/C=C/c3ccc(C#N)cc3)N(C)C\2=O)cc1 [Carrot-1-IV-31] | 621 | 508 | 24000 | 0.15 | 75 | 
21 | COC(=O)CNCCN(C)c1ccc(/C=C2N=C(/C=C/c3ccc(Br)cc3)N(C)C\2=O)cc1 [Carrot-1-IV-32] | 591 | 489 | 22000 | 0.11 | 64 | 
22 | CN1C(=O)/C(=C/c2ccc(N(C)CCN)cc2)N=C1/C=C/c1cccc(F)c1 [Carrot-1-IV-33] | 592 | 519 | 28000 | 0.38 | 287 | 
23 | CN(C)CCN(C)c1ccc(/C=C2N=C(/C=C/c3cccc(F)c3)N(C)C\2=O)cc1 [Carrot-1-IV-34] | 581 | 515 | 29000 | 0.38 | 287 | 
24 | CN1C(=O)/C(=C/c2ccc(N)cc2)N=C1/C=C/c1ccc(C#N)cc1 [Carrot-1-IV-35] | 619 | 527 | 21000 | 0.14 | 97 | 
25 | C#CCOCCN(C)c1ccc(/C=C2N=C(/C=C/c3ccc(F)cc3)N(C)C\2=O)cc1 [Carrot-1-IV-36] | 578 | 511 | 22000 | 0.28 | 262 | 
26 | CN1C(=O)/C(=C/c2cc(F)c(O)c(F)c2)N=C1/C=C/c1ccccn1 [Carrot-1-IV-38] | 581 | 519 | 26000 | 0.31 | 257 | 
27 | Carrot-3: base-modified Carrot, SEQ ID NO: 5, GGGAAGATTGTAAACACGCCGAAAGGCGGACACTTCCC containing deoxyribonucleotide bases (GGGAAGAUUGUAAACACGCCGAAAGGCGGACACUUCCC; some positions are deoxyribonucleotides, which ones are not given here in text) |  |  |  |  |  | significantly activate
28 | Carrot-4: base-modified Carrot, SEQ ID NO: 6, GGGAAGATTGTAAACACGCCGAAAGGCGGACACTTCCC containing 2′-F modification (GGGAAGAUUGUAAACACGCCGAAAGGCGGACACUUCCC; some positions carry 2'-F, which ones are not given here in text) |  |  |  |  |  | significantly activate
